Calls of active or inactive are those of the source. No rule for the calls is given here.
Test system: CCRIS mutagenicity, Ames/micronucleus/aberration tests
Assay: CCRIS mutagenicity studies
Settings: End Point: IN VIVO MICRONUCLEUS; Test System: BONE MARROW POLYCHROMATIC ERYTHROCYTES; Species: RAT; Strain/Sex: ALDERLEY PARK (AP)/FEMALE; Route: SUBCUTANEOUS (TEST MATERIAL SOLVENT: OIL)

Question: For `C[C@]12CC[C@@H]3c4ccc(OC(=O)c5ccccc5)cc4CC[C@H]3[C@@H]1CC[C@@H]2O`, which mutagenic call is on record?
Answer: inactive; negative

From PubChem BioAssay AID1259407 (Chemical Carcinogenesis Research Information System (CCRIS), 2018)
